Reference: US20030229002A1, “Use of agents that modulate PDE11A activity” (Pfizer Inc., priority 2002, published 2003)
Counter-ions that a name gives are not always drawn. Like-named read-outs stand apart in the source and are kept apart here.

Tests used:
epididymal spermatozoa = assay: Capacitation analysis, chlorotetracycline (CTC) assay; format: cell-based, mouse; conditions: for number of capacitated sperm: FIG. 6, P<0.001; for % capacitated sperm: mean ± SEM
Source text: Tissue sections were examined by immunohistochemistry (IHC) using a specific anti-PDE11 antibody. KO mice were generated using standard techniques, and PDE11 ablation confirmed by Southern blotting as well as reverse transcriptase polymerase chain reaction (RT-PCR) and IHC analysis of the testis. Fresh epididymal sperm were collected from adult mice and tested for capacitation (CP) using a chlorotetracycline assay before and after treatment with ATP—an inducer of CP.
For capacitation analyses, fresh epididymal spermatozoa were collected from adult (16 week-old) mice into Tyrodes media, and tested in triplicate using a chlorotetracycline (CTC) assay (Fraser, L. R. & Herod, J. E. Expression of capacitation-dependent changes in chlortetracycline fluorescence patterns in mouse spermatozoa requires a suitable glycolysable substrate. J. Reprod. Fert., 1990; 88(2): 611-21) both ± pre-treatment with ATP—an inducer of capacitation—to determine the functional state of the spermatozoa.
[…] The extent of capacitation was measured using chlorotetracycline (CTC), 750 μM for 15 min at 37° C. The patterns of CTC fluorescence were observed under microscopy (Reference: Fraser L R et al., 1990, J. Reprod. Fert.—see above). Patterns reflected the functional state of spermatozoa, i.e. capacitated, uncapacitated and acrosome loss.

PDE6 = target: T1, PDE6 (Bos taurus, UniProt P11541+P23439); assay: PDE6 inhibition, SPA-based cGMP hydrolysis assay; format: biochemical; conditions: PDE6 isolated from bovine retina; geometric mean of at least 3 determinations
T1 construct: PDE6 was isolated from bovine retina; from tissue; host or cells: bovine retina
T1 sequence (P11541 2-856 limits assumed): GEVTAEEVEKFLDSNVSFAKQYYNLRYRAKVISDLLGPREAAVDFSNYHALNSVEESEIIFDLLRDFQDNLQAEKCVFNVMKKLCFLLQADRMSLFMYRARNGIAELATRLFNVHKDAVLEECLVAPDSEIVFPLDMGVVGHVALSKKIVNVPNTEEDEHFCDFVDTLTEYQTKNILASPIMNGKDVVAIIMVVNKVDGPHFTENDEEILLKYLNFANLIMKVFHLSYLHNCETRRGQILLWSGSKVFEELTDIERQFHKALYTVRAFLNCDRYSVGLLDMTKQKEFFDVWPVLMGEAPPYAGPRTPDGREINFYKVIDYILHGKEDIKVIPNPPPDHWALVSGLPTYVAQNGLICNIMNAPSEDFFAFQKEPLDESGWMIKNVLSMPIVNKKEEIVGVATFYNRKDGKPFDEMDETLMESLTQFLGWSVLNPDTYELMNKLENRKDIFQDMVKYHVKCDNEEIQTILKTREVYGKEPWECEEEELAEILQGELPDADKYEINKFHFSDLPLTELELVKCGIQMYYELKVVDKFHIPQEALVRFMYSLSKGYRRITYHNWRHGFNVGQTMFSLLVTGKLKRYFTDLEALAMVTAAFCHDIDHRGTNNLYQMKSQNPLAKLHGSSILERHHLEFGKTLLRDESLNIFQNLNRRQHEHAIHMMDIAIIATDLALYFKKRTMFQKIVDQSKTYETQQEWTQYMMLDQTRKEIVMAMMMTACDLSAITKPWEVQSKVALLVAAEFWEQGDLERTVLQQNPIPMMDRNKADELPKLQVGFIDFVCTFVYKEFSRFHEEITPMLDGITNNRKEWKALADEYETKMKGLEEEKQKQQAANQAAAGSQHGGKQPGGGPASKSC
T1 sequence (P23439 2-850 limits assumed): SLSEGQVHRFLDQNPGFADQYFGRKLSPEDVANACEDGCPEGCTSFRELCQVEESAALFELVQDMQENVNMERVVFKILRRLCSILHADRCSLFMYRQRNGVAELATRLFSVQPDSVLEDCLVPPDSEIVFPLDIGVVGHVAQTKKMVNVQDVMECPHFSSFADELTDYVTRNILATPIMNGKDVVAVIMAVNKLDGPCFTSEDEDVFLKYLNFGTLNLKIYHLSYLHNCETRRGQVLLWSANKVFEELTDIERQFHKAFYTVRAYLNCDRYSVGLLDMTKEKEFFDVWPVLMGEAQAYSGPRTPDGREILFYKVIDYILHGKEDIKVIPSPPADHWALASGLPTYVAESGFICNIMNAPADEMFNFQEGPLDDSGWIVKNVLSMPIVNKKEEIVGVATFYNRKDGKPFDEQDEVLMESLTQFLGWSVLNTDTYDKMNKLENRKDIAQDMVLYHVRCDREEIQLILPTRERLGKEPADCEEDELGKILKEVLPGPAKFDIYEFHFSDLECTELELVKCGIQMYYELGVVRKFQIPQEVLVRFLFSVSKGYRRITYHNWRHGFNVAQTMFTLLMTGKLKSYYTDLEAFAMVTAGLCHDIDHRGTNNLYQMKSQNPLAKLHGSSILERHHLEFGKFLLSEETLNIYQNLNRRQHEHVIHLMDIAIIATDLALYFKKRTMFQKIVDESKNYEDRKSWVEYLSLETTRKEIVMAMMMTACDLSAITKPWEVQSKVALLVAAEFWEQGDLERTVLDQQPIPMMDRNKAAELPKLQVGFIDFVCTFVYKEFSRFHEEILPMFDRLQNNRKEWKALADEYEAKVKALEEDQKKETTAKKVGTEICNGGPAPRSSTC

recombinant human PDE7 = target: T2, recombinant human PDE7 (Homo sapiens, UniProt Q13946); assay: PDE7 inhibition, SPA-based assay; format: biochemical; conditions: Sf9 cells, geometric mean of at least 3 determinations
T2 construct: made in house; host or cells: Sf9 insect cells (baculovirus)
T2 sequence (Q13946 whole entry): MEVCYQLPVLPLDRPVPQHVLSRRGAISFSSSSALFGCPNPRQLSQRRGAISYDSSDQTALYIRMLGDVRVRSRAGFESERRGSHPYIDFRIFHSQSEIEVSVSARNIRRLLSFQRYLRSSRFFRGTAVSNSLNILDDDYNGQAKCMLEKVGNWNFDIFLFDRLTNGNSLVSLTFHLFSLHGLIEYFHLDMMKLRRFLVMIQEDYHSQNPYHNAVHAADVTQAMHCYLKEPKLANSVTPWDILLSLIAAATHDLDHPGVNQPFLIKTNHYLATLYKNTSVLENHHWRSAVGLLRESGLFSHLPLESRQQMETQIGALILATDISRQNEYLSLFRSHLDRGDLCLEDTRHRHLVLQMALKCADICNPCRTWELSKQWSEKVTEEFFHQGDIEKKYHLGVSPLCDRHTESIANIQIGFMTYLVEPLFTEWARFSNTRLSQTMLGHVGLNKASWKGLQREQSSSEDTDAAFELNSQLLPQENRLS

recombinant human PDE8 = target: T3, recombinant human PDE8 (Homo sapiens, UniProt O60658); assay: PDE8 inhibition, SPA-based assay; format: biochemical; conditions: Sf9 cells, geometric mean of at least 3 determinations
T3 construct: made in house; host or cells: Sf9 insect cells (baculovirus)
T3 sequence (O60658 whole entry): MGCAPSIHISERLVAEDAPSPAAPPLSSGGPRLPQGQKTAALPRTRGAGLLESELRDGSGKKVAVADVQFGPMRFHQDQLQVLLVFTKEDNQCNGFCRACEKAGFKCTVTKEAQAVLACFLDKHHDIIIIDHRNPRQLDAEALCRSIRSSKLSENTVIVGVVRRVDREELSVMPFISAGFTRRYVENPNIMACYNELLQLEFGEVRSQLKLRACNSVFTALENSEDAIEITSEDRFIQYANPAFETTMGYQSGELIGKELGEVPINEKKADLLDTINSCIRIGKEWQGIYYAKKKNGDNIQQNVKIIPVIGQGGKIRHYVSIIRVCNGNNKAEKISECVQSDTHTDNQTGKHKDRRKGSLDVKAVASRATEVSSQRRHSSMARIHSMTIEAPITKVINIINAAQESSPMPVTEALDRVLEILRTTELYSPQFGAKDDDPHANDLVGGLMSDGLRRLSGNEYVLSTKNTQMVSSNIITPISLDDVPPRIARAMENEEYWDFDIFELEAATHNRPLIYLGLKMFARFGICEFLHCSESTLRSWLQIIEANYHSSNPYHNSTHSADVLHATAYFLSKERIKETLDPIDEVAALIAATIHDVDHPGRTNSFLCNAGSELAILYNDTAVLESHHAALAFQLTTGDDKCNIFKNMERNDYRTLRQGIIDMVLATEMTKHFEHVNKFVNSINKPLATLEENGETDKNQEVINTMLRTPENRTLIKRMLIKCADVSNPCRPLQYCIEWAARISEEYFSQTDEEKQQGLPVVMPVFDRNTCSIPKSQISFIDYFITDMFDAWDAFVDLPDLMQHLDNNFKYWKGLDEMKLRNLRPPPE

recombinant human PDE9 = target: T4, recombinant human PDE9 (Homo sapiens, UniProt O76083); assay: PDE9 inhibition, SPA-based assay; format: biochemical; conditions: Sf9 cells, geometric mean of at least 3 determinations
T4 construct: made in house; host or cells: Sf9 insect cells (baculovirus)
T4 sequence (O76083 whole entry): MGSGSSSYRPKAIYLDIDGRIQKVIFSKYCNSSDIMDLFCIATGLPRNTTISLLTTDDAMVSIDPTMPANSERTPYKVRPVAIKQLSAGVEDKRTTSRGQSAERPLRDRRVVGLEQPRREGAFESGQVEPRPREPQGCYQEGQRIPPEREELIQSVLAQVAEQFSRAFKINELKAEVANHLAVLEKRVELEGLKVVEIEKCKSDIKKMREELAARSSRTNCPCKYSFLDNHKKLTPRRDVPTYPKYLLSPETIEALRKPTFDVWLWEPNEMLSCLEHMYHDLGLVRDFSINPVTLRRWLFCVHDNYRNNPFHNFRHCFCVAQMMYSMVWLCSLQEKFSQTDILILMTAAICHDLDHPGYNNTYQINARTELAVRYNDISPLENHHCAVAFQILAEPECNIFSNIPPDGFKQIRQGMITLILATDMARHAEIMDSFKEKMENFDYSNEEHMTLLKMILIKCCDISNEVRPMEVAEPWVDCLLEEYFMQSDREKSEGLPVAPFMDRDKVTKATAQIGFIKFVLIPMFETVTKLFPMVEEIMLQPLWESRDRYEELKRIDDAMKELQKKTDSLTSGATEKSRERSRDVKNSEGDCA

recombinant human PDE10 = recombinant human PDE10 (Homo sapiens, UniProt Q9Y233); assay: PDE10 inhibition, SPA-based assay; format: biochemical; conditions: Sf9 cells, geometric mean of at least 3 determinations
Chain of recombinant human PDE10 (Q9Y233 290-1055 limits assumed): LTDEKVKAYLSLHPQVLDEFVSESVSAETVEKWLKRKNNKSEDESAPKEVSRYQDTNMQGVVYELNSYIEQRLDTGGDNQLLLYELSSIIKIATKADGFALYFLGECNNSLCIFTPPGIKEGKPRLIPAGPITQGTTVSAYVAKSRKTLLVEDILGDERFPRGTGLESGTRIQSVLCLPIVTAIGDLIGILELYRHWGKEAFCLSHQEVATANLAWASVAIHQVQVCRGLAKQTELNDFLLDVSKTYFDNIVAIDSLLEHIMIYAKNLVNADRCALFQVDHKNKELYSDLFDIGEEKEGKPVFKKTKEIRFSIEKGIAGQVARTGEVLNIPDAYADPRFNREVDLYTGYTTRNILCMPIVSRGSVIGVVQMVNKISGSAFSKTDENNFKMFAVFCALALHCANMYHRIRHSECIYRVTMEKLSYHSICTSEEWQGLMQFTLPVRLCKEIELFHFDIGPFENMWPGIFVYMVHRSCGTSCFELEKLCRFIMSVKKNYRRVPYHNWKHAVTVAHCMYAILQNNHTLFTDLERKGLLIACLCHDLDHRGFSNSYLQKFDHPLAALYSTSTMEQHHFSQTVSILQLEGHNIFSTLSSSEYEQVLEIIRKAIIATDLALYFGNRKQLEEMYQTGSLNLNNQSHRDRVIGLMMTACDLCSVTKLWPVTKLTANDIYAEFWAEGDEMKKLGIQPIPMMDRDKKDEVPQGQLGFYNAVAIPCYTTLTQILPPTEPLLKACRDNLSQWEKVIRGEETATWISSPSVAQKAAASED

recombinant human PDE11A [1] = target: T5, recombinant human PDE11A (Homo sapiens, UniProt Q9HCR9); assay: PDE11A inhibition, SPA-based cGMP hydrolysis assay; format: biochemical
T5 construct: made in house; host or cells: Sf9 insect cells (baculovirus)
T5 sequence (Q9HCR9 445-933): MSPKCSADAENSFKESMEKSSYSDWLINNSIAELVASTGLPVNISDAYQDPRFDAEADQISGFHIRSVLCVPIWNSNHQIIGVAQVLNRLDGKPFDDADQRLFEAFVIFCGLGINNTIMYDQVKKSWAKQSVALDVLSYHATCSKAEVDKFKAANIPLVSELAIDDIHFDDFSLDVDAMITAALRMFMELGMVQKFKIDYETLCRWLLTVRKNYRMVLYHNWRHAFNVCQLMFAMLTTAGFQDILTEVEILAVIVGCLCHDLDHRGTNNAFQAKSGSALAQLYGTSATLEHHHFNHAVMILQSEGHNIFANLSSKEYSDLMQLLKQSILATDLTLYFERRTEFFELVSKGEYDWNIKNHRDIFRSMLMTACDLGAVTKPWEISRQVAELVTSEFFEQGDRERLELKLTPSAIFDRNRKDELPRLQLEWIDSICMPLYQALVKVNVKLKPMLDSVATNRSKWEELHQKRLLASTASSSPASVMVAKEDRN

recombinant human PDE11A [2] = target: T5, recombinant human PDE11A; conditions: substrate hydrolysis by recombinant human PDE11A; cited from earlier work

Structure (SMILES)	IC50 (PDE6)	IC50 (recombinant human PDE7)	IC50 (recombinant human PDE9)	IC50 (recombinant human PDE10)	IC50 (recombinant human PDE8)	also measured
Nc1ncnc2c1ncn2[C@@H]1O[C@H](COP(=O)(O)OP(=O)(O)OP(=O)(O)O)[C@@H](O)[C@H]1O [ATP, adenosine-5′-triphosphate]	–	–	–	–	–	number of capacitated sperm (epididymal spermatozoa; ATP 1.0 mM, spermatozoa from PDE11 KO mice only): significantly increased; number of capacitated sperm (epididymal spermatozoa; ATP 2.5 mM, all murine spermatozoa samples, 1 hr incubation): significantly increased; number of capacitated murine spermatozoa (epididymal spermatozoa; PDE11 knockout and wild type samples, after 1 hr incubation): significantly increased; % capacitated sperm (epididymal spermatozoa; Table 2, PDE11 KO (−/−) mice, pre-treatment +1mM ATP, n = 3 animals): 45.9 ± 7.0%; % capacitated sperm (epididymal spermatozoa; Table 2, PDE11 KO (−/−) mice, pre-treatment +2.5 mM ATP, n = 3 animals): 73.9 ± 5.6%; % capacitated sperm (epididymal spermatozoa; Table 2, Wild-type (+/+) mice, pre-treatment +1mM ATP, n = 3 animals): 41.4 ± 8.2%; % capacitated sperm (epididymal spermatozoa; Table 2, Wild-type (+/+) mice, pre-treatment +2.5 mM ATP, n = 3 animals): 73.5 ± 5.1%; % capacitated sperm (epididymal spermatozoa; Table 3, PDE11 KO (−/−) mice, pre-treatment +1 mM ATP, n = 4): 48.4 ± 4.0%; % capacitated sperm (epididymal spermatozoa; Table 3, PDE11 KO (−/−) mice, pre-treatment +2.5 mM ATP, n = 4): 77.6 ± 3.8%; % capacitated sperm (epididymal spermatozoa; Table 3, Wild-type (+/+) mice, pre-treatment +1 mM ATP, n = 4): 47.1 ± 5.1%; % capacitated sperm (epididymal spermatozoa; Table 3, Wild-type (+/+) mice, pre-treatment +2.5 mM ATP, n = 4): 78.4 ± 3.3%
O=C(O)C1CCN(c2nc(NCc3ccc4c(c3)OCO4)c3cc(Cl)ccc3n2)CC1 [Compound E4021, 1-[4-[(1,3-benzodioxol-5-ylmethyl)amino]-6-chloro-2-quinazolinyl]-4-piperidinecarboxylic acid, monohydrochloride]	0.0047 µM	> 100 µM	> 100 µM	> 100 µM	> 100 µM	IC50 (recombinant human PDE11A [1]): 0.572 µM
Nc1nc2c(ncn2[C@@H]2O[C@@H]3COP(=O)(O)O[C@H]3[C@H]2O)c(=O)[nH]1 [cGMP, cyclic guanine 3′,5′-monophosphate]	–	–	–	–	–	Km (recombinant human PDE11A [2]): 0.52 µM

Now from value to compound, other results behind:

IC50 (PDE6)	IC50 (recombinant human PDE7)	IC50 (recombinant human PDE9)	IC50 (recombinant human PDE10)	Structure (SMILES)	IC50 (recombinant human PDE8)	also measured
1.5 µM	> 100 µM	> 100 µM	> 100 µM	CN1CC(=O)N2[C@H](c3ccc4c(c3)OCO4)c3[nH]c4ccccc4c3C[C@@H]2C1=O [IC351, (6R,12aR)-6-(1,3-benzodioxol-5-yl)-2,3,6,7,12,12a-hexahydro-2-methyl-pyrazino[1′,2′: 1,6]pyrido[3,4-b]indole-1,4-dione]	> 100 µM	–
–	19.7 µM	–	–	CCCc1nn(C)c2c(=O)[nH]c(-c3cc(S(=O)(=O)N4CCN(C)CC4)ccc3OCC)nc12 [Sildenafil, 5-[2-ethoxy-5-(4-methyl-1-piperazinylsulphonyl)phenyl]-1-methyl-3-n-propyl-1,6-dihydro-7H-pyrazolo[4,3-d]pyrimidin-7-one]	–	–
1 µM	–	> 100 µM	> 100 µM	Clc1ccc2nc(-n3ccnc3)nc(NCc3ccccc3)c2c1 [UK-235,187, 6-Chloro-2-(1H-imidazol-1-yl)-N-(phenylmethyl)-,4-quinazolinamine, dihydrochloride]	–	IC50 (recombinant human PDE11A [1]; recombinant human, Sf9 cells, 69 nM cGMP, geometric mean of at least 3 determinations, read-out: IC50 PDE11A): 0.0466 µM
